Data: patent publication US20160177395A1, “BIOMARKERS FOR THE PREDICTION OF RENAL INJURY” (priority 2007, published 2016)
Values joined by “and” are separate entries in the source; they are usually repeats but may differ in a detail not shown here. Identical values can stand only once.

System: kidney tissues of treated or untreated rats
Assay: Real-time qRT-PCR of marker transcripts in kidney tissue panel, discovery stage (Table 22); as to normalized Real Time PCR MUSCYCG1R DB81 seg19-20: test concentration or dose not given here; as to normalized Real Time PCR RATRAB13X DB81 seg15-17: test concentration or dose not given here; as to normalized Real Time PCR RATRAB13X DB81 seg22: test concentration or dose not given here; as to normalized Real Time PCR W33294 DB81 seg23: test concentration or dose not given here; as to normalized Real Time PCR W33294 DB81 seg44: test concentration or dose not given here
Format: in vivo, rat
Design: AI502869_DB71_seg0 normalized Real Time PCR expression: unit not given beside the values
Settings: for normalized Real Time PCR MMU09507_DB81_seg15 / normalized Real Time PCR MUSCYCG1R_DB81_seg19-20 / normalized Real Time PCR RATRAB13X_DB81_seg15-17 / normalized Real Time PCR RATRAB13X_DB81_seg22 / normalized Real Time PCR W33294_DB81_seg23 / normalized Real Time PCR W33294_DB81_seg44: kidney; for AA686189_DB71_seg6 normalized Real Time PCR expression / AA799594_DB71_seg0 normalized Real Time PCR expression / AA964541_DB71_seg0 normalized Real Time PCR expression / AI045075_DB71_seg6 normalized Real Time PCR expression / AI454051_DB71_seg0 normalized Real Time PCR expression / AI502869_DB71_seg0 normalized Real Time PCR expression / AW919147_DB71_seg0 normalized Real Time PCR expression / BI293562_DB71_seg2 normalized Real Time PCR expression / H31045_DB71_seg5 normalized Real Time PCR expression / H31799_DB71_seg23 normalized Real Time PCR expression / H31883_DB71_seg13 normalized Real Time PCR expression / H33998_DB71_seg19 normalized Real Time PCR / MUSCYCG1R_DB81_seg15-17 normalized Real Time PCR / RATLRFI_DB71_seg9 normalized Real Time PCR / RATRAB13X_DB71_seg11-13 normalized Real Time PCR / RNU24174_DB71_seg8 normalized Real Time PCR / W41270_DB81_seg11 normalized Real Time PCR / W64472_DB81_seg2 normalized Real Time PCR / W83813_DB81_seg27 normalized Real Time PCR: rat kidney
How it was run: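 Rat kidney RNA, DNase-treated until PCR-negative, reverse transcribed with SuperscriptII; SYBR Green real-time PCR, 40 cycles, undetected samples set to Ct 41. Relative quantity from efficiency^-Ct (standard-curve efficiency), normalized to the geometric mean of four median-scaled housekeeping genes, then multiplied by a constant factor.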

[1] = female rats, day5, listed as Gent
[2] = day1, individual animals (F and M)
[3] = day5, individual animals (F and M)
[4] = day28, individual animals (F and M)

## Gentamycin
Female rats, day1
  normalized Real Time PCR MMU09507_DB81_seg15: 0.41 and 0.43 and 0.23
  normalized Real Time PCR MUSCYCG1R_DB81_seg19-20: 0.67 and 0.55 and 0.44
  normalized Real Time PCR RATRAB13X_DB81_seg15-17: 0.9 and 0.63 and 0.55
  normalized Real Time PCR RATRAB13X_DB81_seg22: 0.98 and 0.71 and 0.51
  normalized Real Time PCR W33294_DB81_seg23: 1 and 0.51 and 0.94
  normalized Real Time PCR W33294_DB81_seg44: 1.02 and 0.8 and 0.77
Female rats, day5
  normalized Real Time PCR MUSCYCG1R_DB81_seg19-20: 1.41
[1]
  normalized Real Time PCR MMU09507_DB81_seg15: 0.78 and 0.62 and 1.13
  normalized Real Time PCR MUSCYCG1R_DB81_seg19-20: 1.23 and 1.42
  normalized Real Time PCR RATRAB13X_DB81_seg15-17: 1.68 and 1.5 and 1.59
  normalized Real Time PCR RATRAB13X_DB81_seg22: 2.16 and 2.11 and 1.91
  normalized Real Time PCR W33294_DB81_seg23: 1.64 and 1.96 and 1.51
  normalized Real Time PCR W33294_DB81_seg44: 1.64 and 1.72 and 2.13
Female rats, day28
  normalized Real Time PCR MMU09507_DB81_seg15: 1.38 and 0.96 and 0.7
  normalized Real Time PCR MUSCYCG1R_DB81_seg19-20: 0.56 and 0.74 and 0.42
  normalized Real Time PCR RATRAB13X_DB81_seg15-17: 0.84 and 0.9 and 0.88
  normalized Real Time PCR RATRAB13X_DB81_seg22: 0.68 and 0.56 and 0.57
  normalized Real Time PCR W33294_DB81_seg44: 0.66 and 0.71
Male rats, day1
  normalized Real Time PCR MMU09507_DB81_seg15: 0.56 and 0.32 and 0.37
  normalized Real Time PCR RATRAB13X_DB81_seg22: 0.8 and 0.99 and 0.6
  normalized Real Time PCR W33294_DB81_seg23: 0.57 and 0.74 and 0.61
  normalized Real Time PCR W33294_DB81_seg44: 0.77 and 0.5 and 0.64
Male rats, day5
  normalized Real Time PCR MMU09507_DB81_seg15: 0.71 and 0.41 and 0.68
  normalized Real Time PCR MUSCYCG1R_DB81_seg19-20: 1.43 and 1
  normalized Real Time PCR RATRAB13X_DB81_seg15-17: 1.25 and 0.76 and 1.35
  normalized Real Time PCR RATRAB13X_DB81_seg22: 1.25 and 0.77 and 1.16
  normalized Real Time PCR W33294_DB81_seg23: 1.25 and 0.82 and 0.95
  normalized Real Time PCR W33294_DB81_seg44: 1.12 and 0.93 and 0.94
Male rats, day28
  normalized Real Time PCR MMU09507_DB81_seg15: 0.82 and 0.59 and 0.84
  normalized Real Time PCR MUSCYCG1R_DB81_seg19-20: 0.79 and 0.4 and 0.55
  normalized Real Time PCR RATRAB13X_DB81_seg15-17: 0.77 and 0.76 and 1.22
  normalized Real Time PCR RATRAB13X_DB81_seg22: 0.91 and 0.88 and 0.58
  normalized Real Time PCR W33294_DB81_seg23: 0.57 and 0.8 and 0.67
day1, individual animals
  AA686189_DB71_seg6 normalized Real Time PCR expression: 1.19 and 0.65 and 1.07 and 0.94 and 1.04 and 0.6
  AA799594_DB71_seg0 normalized Real Time PCR expression: 1.25 and 0.72 and 0.93 and 0.57 and 0.95 and 0.92
  AA964541_DB71_seg0 normalized Real Time PCR expression: 1.35 and 0.74 and 1.29 and 0.9 and 1.19 and 0.44
  AI045075_DB71_seg6 normalized Real Time PCR expression: 1.5 and 0.93 and 0 and 1.07 and 1.03 and 0.78
  AI454051_DB71_seg0 normalized Real Time PCR expression: 0.9 and 0.75 and 0.57 and 0.4 and 0.54 and 0.79
  AI502869_DB71_seg0 normalized Real Time PCR expression: 0.83 and 0.61 and 0.53 and 1.53 and 0.99 and 0.76
  AW919147_DB71_seg0 normalized Real Time PCR expression: 1.72 and 0.72 (2×) and 0.76 and 1.1 and 0.99
  BI293562_DB71_seg2 normalized Real Time PCR expression: 0.59 and 0.94 and 0.93 and 0.55 and 0.41
  H31045_DB71_seg5 normalized Real Time PCR expression: 0.27 and 0.22 and 0.73 and 0.16 and 0.19 and 0.15
  H31799_DB71_seg23 normalized Real Time PCR expression: 1.19 and 0.88 and 0.93 and 1 and 1.2
  H31883_DB71_seg13 normalized Real Time PCR expression: 0.99 and 0.92 and 0.82 (2×) and 0.61 and 0.73
[2]
  H33998_DB71_seg19 normalized Real Time PCR: 1.31 and 0.83 and 0.56 and 1.51 and 1.35 and 0.99
  MUSCYCG1R_DB81_seg15-17 normalized Real Time PCR: 0.63 and 0.53 and 0.66 and 0.5 and 0.49 and 0.41
  RATLRFI_DB71_seg9 normalized Real Time PCR: 0.98 and 1.54 and 1.09 and 2.74 and 1.72 and 0.27
  RATRAB13X_DB71_seg11-13 normalized Real Time PCR: 1.16 and 0.7 and 0.77 and 2.79 and 1.14 and 1.03
  RNU24174_DB71_seg8 normalized Real Time PCR: 0.47 (2×) and 0.5 and 0.74 and 0.37 and 0.26
  W41270_DB81_seg11 normalized Real Time PCR: 1.24 and 0.67 and 1.19 and 0.46 and 0.68 and 0.57
  W64472_DB81_seg2 normalized Real Time PCR: 0.63 and 0.45 and 0.61 and 0.4 and 0.54 (2×)
  W83813_DB81_seg27 normalized Real Time PCR: 0.84 and 0.79 and 0.78 and 0.53 and 0.58 and 0.71
day5, individual animals
  AA686189_DB71_seg6 normalized Real Time PCR expression: 0.64 and 0.72 and 1.21 and 0.81 and 0.83 and 0.75
  AA799594_DB71_seg0 normalized Real Time PCR expression: 0.99 and 0.89 (2×) and 1.52 and 0.56 and 1.04
  AA964541_DB71_seg0 normalized Real Time PCR expression: 0.86 and 0.58 and 0.91 and 0.76 and 0.87
  AI045075_DB71_seg6 normalized Real Time PCR expression: 0.76 and 1.04 (2×) and 0.62 and 1.1 and 0
  AI454051_DB71_seg0 normalized Real Time PCR expression: 0.63 (2×) and 1.04 and 1.19 and 0.8 and 0.82
  AI502869_DB71_seg0 normalized Real Time PCR expression: 0.73 and 0.62 and 0.96 and 0.51 and 0.43 and 0.53
  AW919147_DB71_seg0 normalized Real Time PCR expression: 0.86 and 0.88 and 0.95 and 0.71 and 0.79 and 0.78
  BI293562_DB71_seg2 normalized Real Time PCR expression: 0.95 and 0.76 and 2.8 and 2.32 and 1.61 and 0.93
  H31045_DB71_seg5 normalized Real Time PCR expression: 0.52 and 1.01 and 0.4 and 1.57 and 1.47 and 0.33
  H31799_DB71_seg23 normalized Real Time PCR expression: 0.92 and 0.91 and 1.36 and 1.08 and 0.76 and 0.88
  H31883_DB71_seg13 normalized Real Time PCR expression: 0.73 and 0.55 and 0.91 and 1.01 and 0.7 and 0.65
[3]
  H33998_DB71_seg19 normalized Real Time PCR: 1.9 and 1.5 and 2.19 and 1.91 and 0.83 and 1.16
  MUSCYCG1R_DB81_seg15-17 normalized Real Time PCR: 1.51 (2×) and 1.61 and 0.95 and 0.79 and 1.02
  RATLRFI_DB71_seg9 normalized Real Time PCR: 0.48 and 0.43 and 4.15 and 1.35 and 1.13 and 0.59
  RATRAB13X_DB71_seg11-13 normalized Real Time PCR: 0.9 (2×) and 0.82 and 1.12 and 0.61 and 0.8
  RNU24174_DB71_seg8 normalized Real Time PCR: 0.31 and 0.22 and 0.81 and 0.65 and 0.36 and 0.4
  W41270_DB81_seg11 normalized Real Time PCR: 2.04 and 1.34 and 2.42 and 2.03 and 1.08 and 1.2
  W64472_DB81_seg2 normalized Real Time PCR: 1.5 and 1.2 and 0.94 and 1.95 and 1.62 and 1.61
  W83813_DB81_seg27 normalized Real Time PCR: 2.07 and 1.82 and 1.7 and 1.35 and 0.88 and 1.4
day28, individual animals
  AA686189_DB71_seg6 normalized Real Time PCR expression: 2.7 and 2.09 and 2.48 and 1.98 and 1.23 and 2.51
  AA799594_DB71_seg0 normalized Real Time PCR expression: 0.84 and 0.8 and 0.89 and 0.54 and 0.5 and 0.67
  AA964541_DB71_seg0 normalized Real Time PCR expression: 3.19 and 1.77 and 2.16 and 3.33 and 1.45 and 3.18
  AI045075_DB71_seg6 normalized Real Time PCR expression: 2.09 and 3.14 and 1.74 and 1.25 and 1.99 and 1.29
  AI454051_DB71_seg0 normalized Real Time PCR expression: 0.67 and 1 and 0.95 and 1.14 and 0.64 and 0.71
  AI502869_DB71_seg0 normalized Real Time PCR expression: 0.66 and 0.74 and 0.73 and 1.36 and 0.92 and 0.77
  AW919147_DB71_seg0 normalized Real Time PCR expression: 0.73 and 1.12 and 0.89 and 0.75 and 0.57 and 0.93
  BI293562_DB71_seg2 normalized Real Time PCR expression: 2.01 and 1.19 and 0.81 and 0.63 and 0.72 and 1.16
  H31045_DB71_seg5 normalized Real Time PCR expression: 0.79 and 0.84 and 0.67 and 1.11 and 4.65 and 0.45
  H31799_DB71_seg23 normalized Real Time PCR expression: 0.88 and 1.05 and 1.17 (2×) and 0.37
  H31883_DB71_seg13 normalized Real Time PCR expression: 0.88 and 0.98 and 0.96 and 1.05 and 0.64 and 0.8
[4]
  H33998_DB71_seg19 normalized Real Time PCR: 0.4 (2×) and 0.7 and 0.56 and 0.49 and 0.42
  MUSCYCG1R_DB81_seg15-17 normalized Real Time PCR: 0.69 and 0.62 and 0.57 and 0.65 and 0.56 and 0.54
  RATLRFI_DB71_seg9 normalized Real Time PCR: 5.63 and 4.17 and 2.43 and 2.56 and 1.59 and 2.51
  RATRAB13X_DB71_seg11-13 normalized Real Time PCR: 0.83 and 1.12 and 0.88 and 1.17 and 0.76 and 1.22
  RNU24174_DB71_seg8 normalized Real Time PCR: 1.53 and 1.2 and 0.59 and 1.91 and 0.69 and 0.65
  W41270_DB81_seg11 normalized Real Time PCR: 0.94 and 0.81 (2×) and 1.42 and 0.75 and 0.84
  W64472_DB81_seg2 normalized Real Time PCR: 0.92 and 0.66 and 0.54 and 1.49 and 0.84 and 0.81
  W83813_DB81_seg27 normalized Real Time PCR: 0.45 and 0.34 and 0.62 and 0.78 and 0.54 and 0.38
